Measurements: patent US6656906B1, “Hybrid polypeptides with enhanced pharmacokinetic properties” (Trimeris, Inc., priority 1998, dated 2003)

What was measured:
[1] = Rat pharmacokinetic studies, IV, fluorescence HPLC of plasma; assay type: in vivo, CD rats; details: IV, male CD rats
Procedure: 250-300 g male CD rats, double jugular catheter, obtained from Charles River Laboratories were used. Peptides were injected in one jugular catheter in a volume of 200 μl of peptide solution (approximately 3.75 mg/ml), dosing solution concentration was determined using the Edelhoch method, (Edelhoch, 1967, Biochemistry 6:1948-1954) method and adjusted based on animal weight such that each animal received a dose of 2.5 mg/kg). Approximately 250-300 μl of blood was removed at predetermined time intervals (0, 15, 30 min and 1, 2, 4, 6, and 8 hours) and added to EDTA capiject tubes. Plasma was removed from pelleted cells upon centrifugation and either frozen or immediately processed for fluorescence HPLC analysis.
100 μl of sample plasma was added to 900 μl of precipitation buffer (acetonitrile, 1.0% TFA, detergent) resulting in precipitation of the majority of plasma proteins. Following centrifugation at 10,000 rpm for 10 min, 400 μl of the supernatant was removed and added to 600 μl of HPLC grade water. Serial dilutions were performed as dictated by concentration of peptide present in each sample in dilution buffer comprised of 40% precipitation buffer and 60% HPLC water. In addition to sample dilutions, serial dilutions of dosing solution were performed in buffer as well as in plasma and used to generate a standard curve relating peak area to known concentration of peptide. This curve was then used to calculate concentration of peptide in plasma taking into account all dilutions performed and quantity injected onto column.

[2] = Single-dose administration to primates (SC, IM, IV), plasma pharmacokinetics; assay type: in vivo, cynomolgus monkeys; details: for bioavailability / half-life / AUC(0-inf) / Cmax / Tmax / AUC(0-t): in vivo; for bioavailability: read-out: FR (%) bioavailability relative to intravenous administration; for half-life: read-out: t½,terminal (converted); for AUC(0-t): read-out: AUC(0-24)
Procedure: A washout period of at least three days separated each dosing day. […] The actual milligram amount of test article was calculated using the peptide content that was determined for the batch administered.
Endpoints for analysis included cageside observations, physical examinations and body weight. For the IV phase of the study, blood samples were collected into heparinized tubes at the following time points: immediately after dosing, 0.25, 0.5, 1.5, 3, 6, 12, and 24 hours after dosing. For the IM and SC phases of the study blood samples were collected in heparinized tubes from each animal at the following time points: 0.5, 1, 2, 3, 6, 12, and 24 hours after dosing. Plasma samples were prepared within one hour of collection and flash frozen in liquid nitrogen. Samples analysis was performed using a PcAb ECLIA assay (Blackburn, G. et al., 1991, Clin. Chem. 37:1534-1539; Deaver, D., 1995, Nature 377:758).

[3] = Single-dose administration to rodents (CSI, SC, IV), plasma pharmacokinetics; assay type: in vivo, Sprague-Dawley albino rats; details: for bioavailability / AUC(0-t) / AUC(0-inf) / Cmax / half-life / Tmax: rat, in vivo; for bioavailability: read-out: FR (%) relative bioavailability; for half-life: read-out: t1/2, terminal (converted)
Procedure: T1249 was administered to Sprague-Dawley albino rats in a single dose administered by continuous subcutaneous infusion (SCI), subcutaneous (SC) injection or intravenous (IV) injection. Each treatment group consisted of nine rats per sex per group. […] One group received 50 mM carbonate-bicarbonate, pH 8.5, administered as a control. The peptides were given for 12 hours via a polyvinyl chloride/polyethylene catheter surgically implanted subcutaneously in the nape of the neck. […] The actual milligram amount of T1249 was calculated using the peptide content that was determined for the batch administrated.
Endpoints for analysis included cageside observations (twice daily for mortality and moribundity), clinical observations, clinical laboratory parameters, body weight and necropsy. Blood samples were obtained by a sparse sampling technique over a 12 hour time period from three rats per sex per group at each of the following times: 0.5, 1, 2, 4, 6, 8, […], and 12 hours after dose administration. Sample analysis was performed using a PcAb ECLIA assay (Blackburn, G. et al., 1991, Clin. Chem. 37:1534-1539; Deaver, D., 1995, Nature 377:758).

[4] = Penetration into cerebrospinal fluid; assay type: in vivo, rats; details: all measurable time points, single dose; below limit of detection
[5] = Plasma and lymphatic pharmacokinetic analysis after IV bolus; assay type: in vivo, rats; details: for clearance / AUC(0-inf) / Cmax / AUC(0-t) / half-life: rat, in vivo; for AUC(0-t): read-out: AUC(0-6h); for half-life: iv, IV bolus, read-out: t½, elimination (converted)
Procedure: For plasma and lymphatic pharmacokinetic analysis of T1249 in rats, T1249 was prepared as a sterile solution in bicarbonate buffer and administered as a single dose, bolus intravenous injection into the lateral tail vain at a dose of […]. Blood was collected from the animal from an in-dwelling jugular catheter. Samples were collected immediately after dosing and at 5, 15, and 30 minutes, and 1, 2, 4, and 6 hours after drug administration. For the analysis of lymphatic fluids, samples were taken immediately before dosing and every 20 minutes for the first six hours after dosing. Lymphatic fluid was collected from a catheter placed directly into the thoracic lymphatic duct as previously described (Kirkpatrick and Silver, 1970, The Journal of Surgical Research 10:147-158).

[6] = cynomolgus monkey, IM (0.8 mg/kg)
[7] = cynomolgus monkey, IV (0.8 mg/kg)
[8] = cynomolgus monkey, SC (0.4 mg/kg)
[9] = cynomolgus monkey, SC (0.8 mg/kg)
[10] = cynomolgus monkey, SC (1.6 mg/kg)

In the case of `CC[C@H](C)[C@H](NC(=O)[C@H](CCC(N)=O)NC(=O)[C@H](C)NC(=O)[C@H](CCC(N)=O)NC(=O)[C@H](CCC(=O)O)NC(=O)[C@H](CC(C)C)NC(=O)[C@H](CC(C)C)NC(=O)[C@H](C)NC(=O)[C@@H](NC(=O)[C@@H](NC(=O)[C@H](CCCCN)NC(=O)[C@H](CCC(N)=O)NC(=O)[C@H](CCC(=O)O)NC(=O)[C@H](Cc1c[nH]c2ccccc12)NC(=O)[C@H](CCC(=O)O)NC(=O)[C@H](CCC(N)=O)NC(=O)[C@H](Cc1c[nH]c2ccccc12)NC(C)=O)[C@@H](C)CC)[C@@H](C)O)C(=O)N[C@@H](CCC(N)=O)C(=O)N[C@@H](CCC(N)=O)C(=O)N[C@@H](CCC(=O)O)C(=O)N[C@@H](CCCCN)C(=O)N[C@@H](CC(N)=O)C(=O)N[C@@H](CCC(=O)O)C(=O)N[C@@H](Cc1ccc(O)cc1)C(=O)N[C@@H](CCC(=O)O)C(=O)N[C@@H](CC(C)C)C(=O)N[C@@H](CCC(N)=O)C(=O)N[C@@H](CCCCN)C(=O)N[C@@H](CC(C)C)C(=O)N[C@@H](CC(=O)O)C(=O)N[C@@H](CCCCN)C(=O)N[C@@H](Cc1c[nH]c2ccccc12)C(=O)N[C@@H](C)C(=O)N[C@@H](CO)C(=O)N[C@@H](CC(C)C)C(=O)N[C@@H](Cc1c[nH]c2ccccc12)C(=O)N[C@@H](CCC(=O)O)C(=O)N[C@@H](Cc1c[nH]c2ccccc12)C(=O)N[C@@H](Cc1ccccc1)C(N)=O` [T1249], the “beta-phase half-life relative to T20” value [1] is reported as “nearly three times greater than T20”, the “total AUC relative to T20” value [1] is reported as “nearly three times greater than T20” and the “t½,terminal” value ([2]; IM (0.8 mg/kg)) is reported as 5.57 h. The “t½,terminal” value ([2]; IV (0.8 mg/kg), 0.8 mg/kg) was 5.35 h, the “t½,terminal” value ([2]; SC (0.8 mg/kg), 0.8 mg/kg) was 4.83 h and the linearity of pharmacokinetics ([2]; SC administration, 0.4-1.6 mg/kg) was “linear pharmacokinetics”. The level at 24 h ([2]; both sexes, cynomolgus monkey, plasma, 24 hours after SC and IV administration, read-out: quantifiable plasma levels at 24 hours) was greater than 500 ng/mL, the bioavailability ([2]; cynomolgus monkey, 0.8 mg/kg, IM (0.8 mg/kg)) was roughly 64% and the bioavailability ([2]; cynomolgus monkey, 0.8 mg/kg, SC (0.8 mg/kg)) was roughly 92%. For the same molecule, the half-life ([2]; cynomolgus monkey, im, 0.8 mg/kg, IM (0.8 mg/kg)) was 5.6 h, the half-life ([2]; cynomolgus monkey, iv, 0.8 mg/kg, IV (0.8 mg/kg)) was 5.4 h and the half-life ([2]; cynomolgus monkey, sc, 0.4 mg/kg, SC (0.4 mg/kg)) was 6.23 h. It also gave a half-life ([2]; cynomolgus monkey, sc, 0.8 mg/kg, SC (0.8 mg/kg)) of 4.8 h, a half-life ([2]; cynomolgus monkey, sc, 1.6 mg/kg, SC (1.6 mg/kg)) of 5.55 h and an AUC(0-inf) [2, 6] of 59500 ng·h/mL. For the same molecule, the Cmax [2, 6] was 6370 ng/mL, the Tmax [2, 6] was 2.32 h and the AUC(0-t) [2, 6] was 56400 ng·h/mL. For the same molecule, the AUC(0-inf) [2, 7] was 92500 ng·h/mL, the Cmax [2, 7] was 26700 ng/mL and the AUC(0-t) [2, 7] was 87400 ng·h/mL. The AUC(0-inf) [2, 8] was 40900 ng·h/mL, the Cmax [2, 8] was 3170 ng/mL and the Tmax [2, 8] was 3.97 h. For the same molecule, the AUC(0-t) [2, 8] was 37500 ng·h/mL, the AUC(0-inf) [2, 9] was 85300 ng·h/mL and the Cmax [2, 9] was 6850 ng/mL. The Tmax [2, 9] was 4.58 h, the AUC(0-t) [2, 9] was 8120 ng·h/mL and the AUC(0-inf) [2, 10] was 181000 ng·h/mL. For the same molecule, the Cmax [2, 10] was 13300 ng/mL, the Tmax [2, 10] was 4.72 h and the AUC(0-t) [2, 10] was 168000 ng·h/mL. For the same molecule, the “time to steady-state plasma peptide concentrations” value ([3]; CSI) was “approximately four hours”, the “dose proportionality of Cpss and AUC” value ([3]; CSI, 0.5 to 6.5 mg/kg) was “linear pharmacokinetics” and the “dose dependence of exposure” value ([3]; SC injection) was “not dose-dependent”. The “changes in body weight, physical observations, hematology and clinical chemistry parameters or macroscopic pathology” value ([3]; all dose groups) was “no changes”, the “dose dependence of pharmacokinetics” value ([3]; bolus IV injection) was “linear dose-dependent pharmacokinetics” and the bioavailability ([3]; SC 1.2 mg/kg relative to IV 1.5 mg/kg) was 73%. The bioavailability ([3]; SC 15 mg/kg relative to IV 5 mg/kg) was 30%, the AUC(0-t) ([3]; CSI, 0.5 mg/kg) was 7990 ng·h/mL and the AUC(0-t) ([3]; CSI, 2.0 mg/kg) was 25900 ng·h/mL. For the same molecule, the AUC(0-t) ([3]; CSI, 6.5 mg/kg) was 120000 ng·h/mL, the AUC(0-inf) ([3]; IV 1.5 mg/kg) was 47100 ng·h/mL and the AUC(0-t) ([3]; IV 1.5 mg/kg) was 45600 ng·h/mL. It also gave a Cmax ([3]; IV 1.5 mg/kg) of 15700 ng/mL, a half-life ([3]; IV 1.5 mg/kg) of 2.46 h and an AUC(0-inf) ([3]; IV 5.0 mg/kg) of 120000 ng·h/mL. It also gave an AUC(0-t) ([3]; IV 5.0 mg/kg) of 118000 ng·h/mL, a Cmax ([3]; IV 5.0 mg/kg) of 46300 ng/mL and a half-life ([3]; IV 5.0 mg/kg) of 1.86 h. For the same molecule, the AUC(0-inf) ([3]; SC 1.2 mg/kg) was 27600 ng·h/mL, the AUC(0-t) ([3]; SC 1.2 mg/kg) was 27000 ng·h/mL and the Cmax ([3]; SC 1.2 mg/kg) was 6370 ng/mL. The Tmax ([3]; SC 1.2 mg/kg) was 1.09 h, the half-life ([3]; SC 1.2 mg/kg) was 2.02 h and the AUC(0-inf) ([3]; SC 15 mg/kg) was 110000 ng·h/mL. The AUC(0-t) ([3]; SC 15 mg/kg) was 107000 ng·h/mL, the Cmax ([3]; SC 15 mg/kg) was 21500 ng/mL and the Tmax ([3]; SC 15 mg/kg) was 1.88 h. The half-life ([3]; SC 15 mg/kg) was 2 h, the “concentration in cerebrospinal fluid (CSF)” value [4] was less than 2.0 ng T1249/ml CSF and the “time to equilibration of lymphatic system with the plasma reservoir” value ([5]; after IV administration) was “within approximately one hour”. It also gave a clearance ([5]; Lymph) of 0.192 mL/min, an AUC(0-inf) ([5]; Lymph, averages exclude Rat #1) of 449000 ng·h/mL and a Cmax ([5]; Lymph, averages exclude Rat #1) of 155000 ng/mL. For the same molecule, the AUC(0-t) ([5]; Lymph, averages exclude Rat #1) was 411000 ng·h/mL, the AUC(0-inf) ([5]; Lymph, averages include Rat #1) was 390000 ng·h/mL and the Cmax ([5]; Lymph, averages include Rat #1) was 133000 ng/mL. For the same molecule, the AUC(0-t) ([5]; Lymph, averages include Rat #1) was 348000 ng·h/mL, the AUC(0-inf) ([5]; Plasma) was 598000 ng·h/mL and the Cmax ([5]; Plasma) was 291000 ng/mL. For the same molecule, the clearance ([5]; Plasma) was 0.13 mL/min, the AUC(0-t) ([5]; Plasma) was 506000 ng·h/mL and the half-life ([5]; Lymph) was 1.3 ± 0.27 h. The half-life ([5]; Plasma) was 2.6 ± 0.41 h.
